Experimental data taken from US20060112439A1, “Delta opioid receptor disruptions, compositions and methods related thereto” (priority 2001, published 2006).

Test system: mice (F2N1 wild-type and delta-opioid receptor homozygous mutant)
Experiment: Metrazol Test (seizure susceptibility; tail vein infusion of pentylenetetrazole)
Assay type: in vivo, mouse
Settings: n=10, about 5 mg/ml infused via tail vein at about 0.375 ml/min
Experimental: A metrazol administration test can be used to screen animals for varying susceptibilities to seizures or similar events. For example, a 5 mg/ml solution of metrazol can be infused through the tail vein of a mouse at a rate of, e.g., approximately 0.375 ml/min. The infusion will cause all mice to experience seizures, followed by death. Those mice that enter the seizure stage the soonest are believed to be more prone to seizures.
To screen for phenotypes involving changes in seizure susceptibility, the Metrazol Test was be used. About 5 mg/ml of Metrazol was infused through the tail vein of the mouse at a constant rate of about 0.375 ml/min. The infusion caused all mice to experience seizures. Those mice entering the seizure stage the quickest were thought to be more prone to seizures in general.
The Metrazol test can also be used to screen for phenotypes related to epilepsy. Ten adult F2N1 wild-type control male mice and ten F2N1 homozygous mutant males were used, all derived from the same ES cell line. A fresh solution of about 5 mg/ml pentylenetetrazole in approximately 0.9% NaCl was prepared prior to testing. Mice were weighed and loosely held in a restrainer. After exposure to a heat lamp to dilate the tail vein, mice were continuously infused with the pentylenetetrazole solution using a syringe pump set at a constant flow rate. The following stages were recorded: first twitch (sometimes accompanied by a squeak), beginning of the tonic/clonic seizure, tonic extension and survival time. The dose required for each phase was determined and the latency to each phase was determined between genotypes. Alterations in any stage may indicate an overall imbalance in excitatory or inhibitory neurotransmitter levels.

[1] = F2N1 delta-opioid receptor homozygous mutant (−/−) male mice

C1CCc2nnnn2CC1 [metrazol, pentylenetetrazole]
Dose (average ± std dev) to death [1]: 121.96 ± 31.09 mg/kg | Dose (average ± std dev) to first twitch [1]: 30.97 ± 5.20 mg/kg | Dose (average ± std dev) to tonic extension [1]: 97.59 ± 32.27 mg/kg | Dose (average ± std dev) to tonic/clonic seizure [1]: 53.48 ± 12.44 mg/kg | Dose (average ± std dev) to death (F2N1 wild-type (+/+) male mice): 181.91 ± 83.20 mg/kg | Dose (average ± std dev) to first twitch (F2N1 wild-type (+/+) male mice): 28.23 ± 5.58 mg/kg | Dose (average ± std dev) to tonic extension (F2N1 wild-type (+/+) male mice): 126.54 ± 23.60 mg/kg | Dose (average ± std dev) to tonic/clonic seizure (F2N1 wild-type (+/+) male mice): 39.62 ± 8.21 mg/kg
